Values joined by “and” are separate entries in the source; they are usually repeats but may differ in a detail not shown here. Equal entries are not always repeated.
What was measured:
[1] = biological target: T1, dipeptidyl-peptidase IV (EC 3.4.14.5) (Bos taurus, UniProt P81425); experiment: Specificity of apstatin: dipeptidyl-peptidase IV; format: biochemical; settings: detergent extract of bovine lung; Gly-Pro-β-NA, pH 6.8, FLUO
T1 construct: Unless otherwise indicated, the source of each enzyme activity was a detergent extract of bovine lung; from tissue; host or cells: detergent extract of bovine lung
T1 sequence (P81425 whole entry): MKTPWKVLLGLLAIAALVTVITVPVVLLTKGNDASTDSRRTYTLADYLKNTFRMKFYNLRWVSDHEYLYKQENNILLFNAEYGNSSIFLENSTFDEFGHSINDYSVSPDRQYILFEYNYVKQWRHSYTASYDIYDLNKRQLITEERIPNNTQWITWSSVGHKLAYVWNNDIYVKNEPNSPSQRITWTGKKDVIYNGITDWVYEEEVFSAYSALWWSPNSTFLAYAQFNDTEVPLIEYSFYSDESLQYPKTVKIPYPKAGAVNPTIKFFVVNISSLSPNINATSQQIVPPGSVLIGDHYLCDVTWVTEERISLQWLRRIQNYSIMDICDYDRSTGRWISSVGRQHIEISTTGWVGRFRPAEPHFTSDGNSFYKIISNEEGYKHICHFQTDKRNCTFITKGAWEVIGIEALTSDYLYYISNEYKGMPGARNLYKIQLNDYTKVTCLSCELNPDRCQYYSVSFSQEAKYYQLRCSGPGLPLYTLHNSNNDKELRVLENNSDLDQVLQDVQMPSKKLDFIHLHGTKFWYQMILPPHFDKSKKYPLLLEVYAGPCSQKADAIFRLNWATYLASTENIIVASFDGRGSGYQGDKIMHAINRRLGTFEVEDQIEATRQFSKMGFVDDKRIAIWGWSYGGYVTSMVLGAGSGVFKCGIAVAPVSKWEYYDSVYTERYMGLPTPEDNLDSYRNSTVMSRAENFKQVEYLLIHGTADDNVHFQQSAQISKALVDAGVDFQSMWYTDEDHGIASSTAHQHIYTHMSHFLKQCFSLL
Protocol: Specificity of Apstatin--Apstatin was assayed for its ability to inhibit several other peptidases. […] Unless otherwise indicated, the source of each enzyme activity was a detergent extract of bovine lung prepared as described in (12-13). Activities were determined by a modification of the fluorescent assay described above (indicated by "FLUO") or by HPLC separation and quantitation of reaction products using the method described in (12) (method "HPLC-1") or the method described below (method "HPLC-2"). […]

[2] = system: [3H]-bradykinin degradation in the isolated perfused rat lung; experiment: [3H]-bradykinin degradation in the isolated perfused rat lung (HPLC of perfusate)
Protocol: Using the procedure described herein, under Experimental Procedures it was determined that aminopeptidase P contributed to Bk degradation in the mammalian lung. In that procedure, [^3 H]-Bk (labelled in Pro^2 and Pro^3) was perfused through the isolated lung in the presence or absence of various peptidase inhibitors. The perfusate was then analyzed for radiolabelled products by HPLC. […] Most of the radioactivity (an average of 79%) was in the form of [^3 H]-Pro-Pro [Bk(2-3)] with the remainder being [^3 H]-Bk(1-5). It was hypothesized that pulmonary vascular aminopeptidase P was cleaving the Arg'-Pro^2 bond followed by rapid removal of Pro-Pro by dipeptidylpeptidase IV (DPP IV) (12). Simultaneously, angiotensin converting enzyme (ACE) was sequentially removing Phe-Arg and Ser-Pro from the C-terminus (13). […] However, most of the radioactivity remained in the Pro-Pro peak indicating substantial cleavage of Bk at the N-terminal end.
Perfusion of the Isolated Rat Lung--Male Sprague Dawley rats, weighing 300-500 grams, were anesthetized with sodium pentobarbital (50-75 mg/kg) given by intraperitoneal injection. The trachea was cannulated and the lungs ventilated with air at 70 cycles per minute (Harvard Small Animal Ventilator) at a pressure of 70 mm H2 O. The heart and lungs were exposed via midsternal incision and 1000 units of heparin were administered intracardially. Polyethylene cannulae were secured into the pulmonary artery and the left ventricle. A modified Krebs buffer (118.5 mM NaCl, 4.7 mM KCl, 1.1 mM KH2 PO4, 1.1 mM MgSO4, 2.5 mM CaCl2, 19.6 mM NaHCO3, 5.6 mM dextrose), which was kept in a 50° C. water bath and aerated with 95% O2 -5% CO2 to pH 7.35, was perfused into the pulmonary artery at 35° C. and 2.6 ml/min (LKB Microperplex peristaltic pump). The buffer was circulated through the isolated lung in situ until the effluent was free of blood. The surgical field was maintained at 37° .C with a heat lamp throughout the procedure. Experiments were conducted by introducing [^3 H]-Bk in the presence or absence of test peptidase inhibitors into the pulmonary circulation via the pulmonary artery and then collecting perfusion effluent from the left ventricular cannula. […] The lung was then perfused with 1 μCi [^3 H]-Bk in 1 ml of the inhibitor solution (giving 16 nM Bk) followed by inhibitor solution alone. Effluent was collected in tubes (0.5 min/fraction) containing 150 μl of 2% TFA. For each lung preparation, 5-6 samples were perfused over a period of about one hour. Control perfusions of [^3 H]-Bk alone were always carried out before perfusions of samples containing ramiprilat because of the slow reversibility of inhibition of ACE by this compound. […] The effects of the latter two inhibitors were reversible.
Separation and Identification of Bradykinin Metabolites--The fractions which were collected from each perfusion sample run were counted for radioactivity, and the fraction having the highest radioactive counts was prepared for HPLC by filtration through a Centricon-10 microconcentrator (Amicon). An aliquot of the filtrate containing 25000 dpm (approx. 25 μl) was spiked with a cocktail of unlabelled Bk fragments (3 μl) and then subjected to HPLC using a Waters Radial Compression Separation System with a 5μ NOVA PAK C18 Radial Pak Cartridge. The column was developed at a flow rate of 1 ml/min with a 60 min linear gradient from 100% Solvent A (0.1% TFA in water) to 75% Solvent A: 25% Solvent B (0.08% TFA in acetonitrile) using a Spectra Physics 8700XR Solvent Delivery System. The column effluent was simultaneously monitored for absorbance at 206 nm (LKB Uvicord S) and for radioactivity (Radiomatic Flo-One HS Radioactive Flow Detector using Ultima-Flo M scintillation fluid from Packard, Meriden, Conn.). […] Radioactive peaks were identified by comparison of the retention times to those of the unlabelled standards. […]

C[C@H](NC(=O)[C@@H]1CCCN1C(=O)[C@@H]1CCCN1C(=O)[C@@H](O)[C@H](N)Cc1ccccc1)C(N)=O [apstatin, N-[(2S, 3R)-3-amino-2-hydroxy-4-phenylbutanoyl]-L-prolyl-L-prolyl-Lalaninamide] was tested, and the IC50 [1] was 1.1 mM, the “percentage of radioactivity eluting from the lung as intact [3H]-Bk” value ([2]; apstatin 40 μM together with ramiprilat (0.5 μM), mean ± SEM, three rats) was 92±4% and 92% and the “percentage of radioactivity eluting from the lung as intact [3H]-Bk” value ([2]; apstatin alone (data not shown), difficult to quantitate accurately) was 1-3%.

From patent US5656603A (Loyola University of Chicago, priority 1995, dated 1997)
